The text below walks through data of BindingDB's records for doi:10.1021/jm800797n (University of Tartu, 2009).

Assay [1] concerns the target cAMP-dependent protein kinase catalytic subunit alpha (Bos taurus) (UniProt P00517). Nature of the assay: The assay is based on the kinase-bound labeled fluorescent probe can be displaced by competitive inhibitors, which can be registered by measurement of the resulting change in fluorescence properties of the solution. The binding curves were fitted using GraphPad Prism version 4.03 using sigmoidal dose-respons. The conditions noted are these: pH 7.5.

Assay [2] has the same target. Nature of the assay: The IC50 values of the inhibitors corresponding to the concentration of the inhibitor decreasing the enzyme activity 50% were measured using fluorescent-labeled substrate. The phosphorylation reaction was initiated by the addition of ATP. At fixed time points, the reaction was analyzed by normal phase TLC. The visualization and quantification.
The target of assay [3] is RAC-gamma serine/threonine-protein kinase (Homo sapiens, UniProt Q9Y243). Nature of the assay: Fluorometric TLC Kinase Assay.
Sequence of RAC-gamma serine/threonine-protein kinase (Q9Y243 whole entry): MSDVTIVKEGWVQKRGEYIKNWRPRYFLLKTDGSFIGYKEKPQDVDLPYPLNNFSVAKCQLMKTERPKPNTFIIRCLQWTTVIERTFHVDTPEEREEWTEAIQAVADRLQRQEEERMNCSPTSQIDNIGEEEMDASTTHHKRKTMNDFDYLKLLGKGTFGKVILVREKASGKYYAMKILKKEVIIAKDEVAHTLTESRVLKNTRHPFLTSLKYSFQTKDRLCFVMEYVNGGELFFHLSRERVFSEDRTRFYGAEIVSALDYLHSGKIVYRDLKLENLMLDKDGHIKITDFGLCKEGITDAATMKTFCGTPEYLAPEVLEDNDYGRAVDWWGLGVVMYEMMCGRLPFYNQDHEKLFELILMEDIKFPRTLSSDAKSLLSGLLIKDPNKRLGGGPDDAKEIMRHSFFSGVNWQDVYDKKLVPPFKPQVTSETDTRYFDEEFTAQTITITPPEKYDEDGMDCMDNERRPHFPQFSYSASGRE

In assay [1], `O=S(=O)(NCCNC/C=C/c1ccc(Br)cc1)c1cccc2cnccc12` registered an equilibrium dissociation constant (Kd) of 23 nM.

On to `N=C(N)NCCC[C@@H](NC(=O)[C@@H](CCCNC(=N)N)NC(=O)[C@@H](CCCNC(=N)N)NC(=O)[C@@H](CCCNC(=N)N)NC(=O)[C@@H](CCCNC(=N)N)NC(=O)[C@@H](CCCNC(=N)N)NC(=O)CCCCCNC(=O)[C@H]1O[C@@H](n2cnc3c(N)ncnc32)[C@H](O)[C@@H]1O)C(N)=O`, for which inhibition in assay [2] was half-maximal at 8.3 nM (IC50).

As to `C[C@@H](NC(=O)CCCCCNC(=O)[C@@H]1C[C@@H](O)[C@H](n2cnc3c(N)ncnc32)C1)C(=O)NCCCCCC(=O)N[C@H](CCCNC(=N)N)C(=O)N[C@H](CCCNC(=N)N)C(N)=O` [6-{[(1S,3R,4R)-3-(6-amino-9H-purin-9-yl)-4-hydroxycyclopentyl]formamido}-N-[(1R)-1-[(5-{[(1R)-4-carbamimidamido-1-{[(1R)-4-carbamimidamido-1-carbamoylbutyl]carbamoyl}butyl]carbamoyl}pentyl)carbamoyl]ethyl]hexanamide], the IC50 in assay [3] stood at 2040 nM.

Turning to `NC(=O)[C@@H](CCCN=C(N)N)NC(=O)[C@@H](CCCN=C(N)N)NC(=O)[C@@H](CCCN=C(N)N)NC(=O)[C@@H](CCCN=C(N)N)NC(=O)[C@@H](CCCN=C(N)N)NC(=O)[C@@H](CCCN=C(N)N)NC(=O)CCCCCNC(=O)[C@@H]1C[C@@H](O)[C@H](n2cnc3c(N)ncnc32)C1` [6-{[(1S,3R,4R)-3-(6-amino-9H-purin-9-yl)-4-hydroxycyclopentyl]formamido}-N-[(1R)-4-carbamimidamido-1-{[(1R)-4-carbamimidamido-1-{[(1R)-4-carbamimidamido-1-{[(1R)-4-carbamimidamido-1-{[(1R)-4-carbamimidamido-1-{[(1R)-4-carbamimidamido-1-carbamoylbutyl]carbamoyl}butyl]carbamoyl}butyl]carbamoyl}butyl]carbamoyl}butyl]carbamoyl}butyl]hexanamide], the IC50 in assay [2] stood at 2.41 nM.

`NC(=O)[C@H](Cc1ccc(C(=O)c2ccccc2)cc1)NC(=O)CCCCCNC(=O)[C@H]1O[C@@H](n2cnc3c(N)ncnc32)[C@H](O)[C@@H]1O` [6-{[(2S,3S,4R,5R)-5-(6-amino-9H-purin-9-yl)-3,4-dihydroxyoxolan-2-yl]formamido}-N-[(1S)-2-(4-benzoylphenyl)-1-carbamoylethyl]hexanamide]: in assay [1], the Kd was greater than 100000 nM.

`N=C(N)NCCC[C@@H](NC(=O)[C@@H](CCCNC(=N)N)NC(=O)[C@@H](CCCNC(=N)N)NC(=O)[C@@H](CCCNC(=N)N)NC(=O)[C@@H](CCCNC(=N)N)NC(=O)[C@@H](CCCNC(=N)N)NC(=O)CCCCCNC(=O)[C@@H](CCCCN)NC(=O)CCCCCNC(=O)[C@H]1O[C@@H](n2cnc3c(N)ncnc32)[C@H](O)[C@@H]1O)C(N)=O` [(2R)-6-amino-2-(6-{[(2S,3S,4R,5R)-5-(6-amino-9H-purin-9-yl)-3,4-dihydroxyoxolan-2-yl]formamido}hexanamido)-N-(5-{[(1R)-4-carbamimidamido-1-{[(1R)-4-carbamimidamido-1-{[(1R)-4-carbamimidamido-1-{[(1R)-4-carbamimidamido-1-{[(1R)-4-carbamimidamido-1-{[(1R)-4-carbamimidamido-1-carbamoylbutyl]carbamoyl}butyl]carbamoyl}butyl]carbamoyl}butyl]carbamoyl}butyl]carbamoyl}butyl]carbamoyl}pentyl)hexanamide] yielded a dissociation constant (Kd) in assay [1] of less than 0.5 nM.

For `NC(=O)[C@@H](CCCN=C(N)N)NC(=O)[C@@H](CCCN=C(N)N)NC(=O)[C@@H](CCCN=C(N)N)NC(=O)[C@@H](CCCN=C(N)N)NC(=O)[C@@H](CCCN=C(N)N)NC(=O)[C@@H](CCCN=C(N)N)NC(=O)CCCCCNCCNS(=O)(=O)c1cccc2cnccc12` [N-[(1R)-4-carbamimidamido-1-{[(1R)-4-carbamimidamido-1-{[(1R)-4-carbamimidamido-1-{[(1R)-4-carbamimidamido-1-{[(1R)-4-carbamimidamido-1-{[(1R)-4-carbamimidamido-1-carbamoylbutyl]carbamoyl}butyl]carbamoyl}butyl]carbamoyl}butyl]carbamoyl}butyl]carbamoyl}butyl]-6-{[2-(isoquinoline-5-sulfonamido)ethyl]amino}hexanamide], the half-maximal inhibitory concentration (IC50) came to 30.7 nM in assay [3] and 5.3 nM in assay [2].

Usually Kd stands for the constant that tells how readily two partners part at equilibrium. A word on the IC50: it is the concentration at which inhibition is half-maximal. Higher therefore signals weaker potency.
